Results published in patent US20250025427A1, “MIXED AMIDE ESTER CONTAINING LIPIDS FOR USE IN LIPID NANOPARTICLES” (Acuitas Therapeutics, Inc., priority 2023, published 2025).

Tested on: luciferase protein (FLuc mRNA) expression in liver
Assay: Luciferase mRNA in vivo evaluation using lipid nanoparticle compositions
Design: species or system mice
Settings: LNP with the cationic lipid, 0.3 mg mRNA/kg, tail vein injection, ng luciferase/g liver 4 hours after administration
Experimental: (§1) A lipid of Formula (I), DSPC, cholesterol and PEG-lipid of Formula (II) are solubilized in ethanol at a molar ratio of 50:10:38.5:1.5 or 47.5:10:40.7:1.8. Lipid nanoparticles (LNP) are prepared at a total lipid to mRNA weight ratio of approximately 10:1 to 40:1. Briefly, the mRNA is diluted to 0.2 mg/mL in 10 to 50 mM citrate buffer, pH 4 to 6 or 10 to 25 mM acetate buffer, pH 4 to 6. Syringe pumps are used to mix the ethanolic lipid solution with the mRNA aqueous solution at a ratio of about 1:5 to 1:3 (vol/vol) with total flow rates above 15 mL/min. The ethanol is then removed, and the external buffer replaced with PBS by dialysis. Finally, the lipid nanoparticles are filtered through a 0.2 µm pore sterile filter.
Studies are performed in 6-8-week-old female C57BL/6 mice (Charles River) or 8-10-week-old CD-1 mice (Charles River or Inotiv) according to guidelines established by an institutional animal care committee (ACC) and the Canadian Council on Animal Care (CCAC). Varying doses of mRNA-lipid nanoparticle are systemically administered by tail vein injection and animals euthanized at a specific time point (e.g., 4 hours) post-administration. Liver and spleen are collected in pre-weighed tubes, weights determined, immediately snap frozen in liquid nitrogen, and stored at −80° C. until processing for analysis. […]

For `CCCCCCCCCCN(CCCCCCCCCC)C(=O)CCCCCCCN(C)CCCCCCCC(=O)NCCCCCC(=O)OCC(CCCCCC)CCCCCCCC` (centres unmarked) [Compound I-3, 2-Hexyldecyl 6-(8-((8-(Didecylamino)-8-Oxooctyl)(Methyl)Amino)Octanamido)Hexanoate], the “Liver Luc (ng/g) @ 0.3 mg/kg” value was 8191 ± 2369 ng/g.

Same assay, conditions: LNP with the cationic lipid, 1.0 mg mRNA/kg, tail vein injection, ng luciferase/g liver 4 hours after administration

With `CCCCCCCCCCN(CCCCCCCCCC)C(=O)CCCCCCCN(C)CCCCCCCC(=O)NCCCCCC(=O)OCC(CCCCCC)CCCCCCCC` (centres unmarked) [Compound I-3, 2-Hexyldecyl 6-(8-((8-(Didecylamino)-8-Oxooctyl)(Methyl)Amino)Octanamido)Hexanoate] the “Liver Luc (ng/g) @ 1.0 mg/kg” value was 25381 ± 4022 ng/g.

Tested on: human IgG in mouse serum
Assay: Immunoglobulin G (IgG) mRNA in vivo evaluation using lipid nanoparticle compositions
Design: species or system mice
Settings: LNP with the cationic lipid, 0.3 mg mRNA/kg, tail vein injection, μg IgG/mL serum 24 hours after administration
Experimental: as §1
Studies are performed in 6-8-week-old CD-1/ICR mice (Charles River or Inotiv) according to guidelines established by an institutional animal care committee (ACC) and the Canadian Council on Animal Care (CCAC). Varying doses of mRNA-lipid nanoparticle are systemically administered by tail vein injection and animals euthanized at a specific time point (e.g., 24 hours) post-administration. The whole blood is collected, and the serum subsequentially separated by centrifuging the tubes of the whole blood at 2000×g for 10 minutes at 4° C. and stored at −80° C. until use for analysis.
For immunoglobulin G (IgG) ELISA (Life Diagnostics Human IgG ELISA kit), the serum samples are diluted at 100 to 20,000 folds with 1× diluent solution. 100 μL of diluted serum is dispensed into anti-human IgG coated 96-well plate in duplicate alongside human IgG standards and incubated in a plate shaker at 150 rpm at 25° C. for 45 minutes. The wells are washed 5 times with 1× wash solution using a plate washer (400 μL/well). 100 μL of HRP conjugate is added into each well and incubated in a plate shaker at the same condition above. The wells are washed 5 times again with 1× wash solution using a plate washer (400 μL/well). 100 μL of TMB reagent is added into each well and incubated in a plate shaker at the same condition above. The reaction is stopped by adding 100 μL of Stop solution to each well. The absorbance is read at 450 nm (A450) with a microplate reader. The amount of human IgG in mouse serum is determined by plotting A450 values for the assay standard against human IgG concentration.
Representative compounds of the disclosure shown in Table 2 were formulated using the following molar ratio: 50% cationic lipid/10% distearoylphosphatidylcholine (DSPC)/38.5% Cholesterol/1.5% PEG lipid 2-[2-(ω-methoxy(polyethyleneglycohooo)ethoxy]-N,N-ditetradecylacetamide) or 47.5% cationic lipid/10% DSPC/40.7% Cholesterol/1.8% PEG lipid. Relative activity was determined by measuring the amount of human IgG […]. The activity was compared at a dose of 1.0 or 0.3 mg mRNA/kg and expressed as ng luciferase/g liver measured 4 hours after administration, as described in Example 1 or as μg IgG/mL serum measured 24 hours after administration, as described in Example 2. Compound numbers in Table 2 refer to the compound numbers of Table 1.

`CCCCCCCCCCCCCCCCN(CCCN(C)CCCCCCCC(=O)N(CCCCCCCCCC)CCCCCC(=O)OCC(CCCC)CCCCCC)C(=O)CCCCC(=O)OCC(CCCCCC)CCCCCCCC` (centres unmarked) [Compound I-38, 2-Hexyldecyl 6-((3-((8-((6-((2-Butyloctyl)Oxy)-6-Oxohexyl)(Decyl)Amino)-8-Oxooctyl)(Methyl)Amino)Propyl)(Hexadecyl)Amino)-6-Oxohexanoate] and `CCCCCCCCC(CCCCCC)COC(=O)CCCCCN(CCCCCCCC)C(=O)CCCCCCCN(C)CCCCCCCC(=O)N(CCCCCCCC)CCCCCC(=O)OCC(CCCCCC)CCCCCCCC` (centres unmarked) [Compound I-41, Bis(2-Hexyldecyl) 6,6′-((8,8′-(Methylazanediyl)Bis(Octanoyl))Bis(Octylazanediyl))Dihexanoate] are within error of each other in “Serum IgG (μg/mL) @ 0.3 mg/kg” value: 21.9 ± 8.8 µg/mL for the first, 19.2 ± 6.8 µg/mL for the second.

Compared with `CCCCCCCCCCN(CCCCCC(=O)OCC(CCCCCC)CCCCCCCC)C(=O)CCCCCCCN(C)CCCCCCCC(=O)N(CCCCCCCCCC)CCCCCC(=O)OCC(CCCCCC)CCCCCCCC` (centres unmarked) [Compound I-40, Bis(2-Hexyldecyl) 6,6′-((8,8′-(Methylazanediyl)Bis(Octanoyl))Bis(Decylazanediyl))Dihexanoate], `CCCCCCCCC(CCCCCC)COC(=O)CCCCCN(CCCCCCCCN(C)CCCCCCCCN(CCCCCC(=O)OCC(CCCCCC)CCCCCCCC)C(=O)CCCCC)C(=O)CCCCC` (centres unmarked) [Compound I-43, Bis(2-Hexyldecyl) 6,6′-(((Methylazanediyl)Bis(Octane-8,1-Diyl))Bis(Hexanoylazanediyl))Dihexanoate] is 3.6-fold higher in “Serum IgG (μg/mL) @ 0.3 mg/kg” value: 13.8 ± 6.0 µg/mL for the first, 49.9 ± 14.8 µg/mL for the second.

`CCCCCCCCC(CCCCCC)COC(=O)CCCCC(=O)N(CCCCCC)CCCCCCCCN(C)CCCCCCCCN(CCCCCC)C(=O)CCCCC(=O)OCC(CCCCCC)CCCCCCCC` (centres unmarked) [Compound I-45, Bis(2-Hexyldecyl) 6,6′-(((Methylazanediyl)Bis(Octane-8,1-Diyl))Bis(Hexylazanediyl))Bis(6-Oxohexanoate)] and `CCCCCCCCC(CCCCCC)COC(=O)CCCCCCCCCN(CCCCCC)C(=O)CCCN(C)CCCC(=O)N(CCCCCC)CCCCCCCCCC(=O)OCC(CCCCCC)CCCCCCCC` (centres unmarked) [Compound I-50, Bis(2-Hexyldecyl) 10,10′-((4,4′-(Methylazanediyl)Bis(Butanoyl))Bis(Hexylazanediyl))Bis(Decanoate)] are within error of each other in “Serum IgG (μg/mL) @ 0.3 mg/kg” value: 18.3 ± 4.6 µg/mL for the first, 11.6 ± 8.2 µg/mL for the second.

First: CCCCCCCCC(CCCCCC)COC(=O)CCCCCN(CCCCCC)C(=O)CCCCCN(C)CCCCCCCC(=O)N(CCCCCC)CCCCCCOC(=O)C(CCCCCC)CCCCCCCC (centres unmarked) [Compound I-46, 7,23,32-Trihexyl-16-Methyl-8,22,29-Trioxo-30-Oxa-7,16,23-Triazatetracontyl 2-Hexyldecanoate]
Second: CCCCCCCCC(CCCCCC)COC(=O)CCCCCN(CCCCCC)C(=O)CCCN(C)CCCC(=O)N(CCCCCC)CCCCCC(=O)OCC(CCCCCC)CCCCCCCC (centres unmarked) [Compound I-52, Bis(2-Hexyldecyl) 6,6′-((4,4′-(Methylazanediyl)Bis(Butanoyl))Bis(Hexylazanediyl))Dihexanoate]
The “Serum IgG (μg/mL) @ 0.3 mg/kg” value of the first is 2.6-fold higher: 34.4 ± 11.3 µg/mL for the first, 13.0 ± 4.1 µg/mL for the second.

`CCCCCCCCC(CCCCCC)COC(=O)CCCCCN(CCCCCC)C(=O)CCN(C)CCC(=O)N(CCCCCC)CCCCCC(=O)OCC(CCCCCC)CCCCCCCC` (centres unmarked) [Compound I-48, Bis(2-Hexyldecyl) 6,6′-((3,3′-(Methylazanediyl)Bis(Propanoyl))Bis(Hexylazanediyl))Dihexanoate] was tested, and the “Serum IgG (μg/mL) @ 0.3 mg/kg” value was 27.5 ± 12.7 µg/mL.
